Experimental data reported in patent publication US12637499B2, “Adrenomedullin analog, method for producing the same, and pharmaceutical use thereof” (priority 2020, dated 2026).
Where two headings read alike, the source gives them in different places. Where a SMILES comes first, the peptide text is derived from it. Bridges are numbered along the chain shown (N, C = ends).

Experiments:
in vitro [1] = conditions: for change in amount with the lapse of reaction time in reaction mixture with serum: Experiment IV, up to 240 minutes; for remaining at 4 h: serum, pH 7.1
Method: After the lapse of a predetermined time, a 30-μl portion was taken out of the reaction solution, transferred into 170 μl of 0.1% aqueous solution of trifluoroacetic acid (TFA), and stored at −80° C. until analysis.
Quantitative analysis was performed for AM contained in the thus-obtained samples of a reaction mixture with serum or plasma by using specific fluoroimmunoassay (Tosoh Corporation) with two antibodies differing in their recognition sites. […] In the figure, the abscissa represents reaction time (min), and the ordinate represents concentration of AM (UM).
In the figure, the abscissa represents reaction time (min), and the ordinate represents concentration of AM or an AM analog (μM).
In the figure, the abscissa represents the type of AM or an AM analog, and the ordinate represents residual rates of AM or an AM analog (%).

[2] = 50 nmol/kg subcutaneous, Experiment VI
Method: (§1) Eight-week-old male Wistar rats were purchased from Charles River Laboratories Japan, Inc. The rats were grown with normal feeds in the absence of specific pathogens under cycles of a 12-hour light period and a 12-hour dark period. […] To determine plasma AM concentrations, 50 nmol/kg of AM or an AM analog was subcutaneously administered. A peripheral blood sample was collected from the tail vein into a test tube (containing 21 μg of aprotinin and 0.3 mg of EDTA-2Na) at predetermined times (0, 15, 30, 60, and 120 minutes after administration). The test tube was centrifuged at 1,700×g to afford plasma.

in vivo [3] = conditions: male, Wistar, rat, sc, 50 nmol/kg; for AUC: in vivo; for Cmax / half-life: plasma
Method: as §1

in vitro [4] = conditions: Experiment VIII; 10^−7 M, 37° C.; 4 hours after the beginning of reaction
Method: The stabilities of the AM analog peptides in serum were evaluated with the same procedure as in Experiment I except the following procedure. […] A reaction mixture containing 4 μL of phosphate buffer, 20 μL of human serum (Sigma-Aldrich Co. LLC, USA), and 14 μL of water was prepared. To the reaction mixture, 2 μL of AM or an AM analog peptide (2×10^−6 M, final concentration: 10^−7 M) was added, and reaction was initiated at 37° C. The reaction was terminated by addition of 160 μL of ELISA buffer to the reaction mixture 0, 1, or 4 hours after the beginning of reaction. […] In the figure, the abscissa represents reaction time (hr), and the ordinate represents concentration in serum of AM or an AM analog (%) represented as relative values to concentration of AM or an AM analog at the beginning of reaction (i.e., 0 hours after the beginning of reaction).

[5] = biological target: T1, AM type 1 receptor (AMI receptor) (Homo sapiens, UniProt O60895+Q16602); assay: Intracellular cAMP production in HEK293 cells stably expressing AM type 1 receptor (Experiments V and IX); format: cell-based
T1 construct: expressed in transfected cells; medium contains hygromycin B and Geneticin
T1 sequence (Q16602 23-461): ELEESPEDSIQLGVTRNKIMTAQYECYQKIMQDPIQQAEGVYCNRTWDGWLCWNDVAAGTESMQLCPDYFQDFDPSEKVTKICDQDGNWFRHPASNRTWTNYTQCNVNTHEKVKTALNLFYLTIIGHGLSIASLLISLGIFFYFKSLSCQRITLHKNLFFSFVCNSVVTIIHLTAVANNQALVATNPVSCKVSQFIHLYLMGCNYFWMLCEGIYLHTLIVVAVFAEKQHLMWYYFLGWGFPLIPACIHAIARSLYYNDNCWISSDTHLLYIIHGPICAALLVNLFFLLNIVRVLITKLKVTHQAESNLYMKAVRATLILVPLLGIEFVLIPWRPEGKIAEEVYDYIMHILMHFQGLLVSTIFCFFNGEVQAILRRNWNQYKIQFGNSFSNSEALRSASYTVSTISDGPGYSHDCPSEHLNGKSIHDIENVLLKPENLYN
T1 sequence (O60895 43-175): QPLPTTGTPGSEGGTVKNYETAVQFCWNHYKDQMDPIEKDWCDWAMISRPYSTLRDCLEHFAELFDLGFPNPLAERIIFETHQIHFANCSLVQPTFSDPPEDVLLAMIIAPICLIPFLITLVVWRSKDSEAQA
Excerpt: The adrenomedullin activity exerted by AM, shown above with examples, will be exerted via increased concentration of intracellular cAMP in normal cases. Thus, the increased concentration of intracellular cAMP can be considered as an index of the adrenomedullin activity of the compound according to the aspect. In each aspect of the invention, the effect of increasing concentration of intracellular cAMP can be evaluated, for example, by adding a target compound to a cultured cell line (HEK293 cell line) caused to stably express an AM type 1 receptor (AMI receptor) and measuring the amount of intracellular cAMP produced.
The physiological effect of AM is known to be exerted via increase in the concentration of intracellular cAMP (see Kitamura K et al., Biochem Biophys Res Commun, 30 Apr. 1993, Volume 192, Issue 2, pp. 553-560). Accordingly, each AM analog was added to a cultured cell line (HEK293 cell line) caused to stably express an AM type 1 receptor (AMI receptor), and the amount of intracellular cAMP produced was measured. HEK293 cells were cultured in Dulbecco's modified Eagle's medium (with 10% fetal bovine serum, 100 U/ml penicillin G, […] streptomycin, 0.25 mg/ml amphotericin B, […] hygromycin B, and […] Geneticin) in a fibronectin-coated 24-well plate (Thermo Fisher Scientific) (under 37° C., humidified, 5% CO2 conditions). After culturing for 3 days, 90%-confluent cells with accumulation of intracellular cAMP stimulated were subjected to experiment. The medium was exchanged with Hanks's balanced salt solution containing 20 mM 4-(2-hydroxyethyl)-1-piperazineethanesulfonic acid and 0.1% bovine serum albumin, AM or an AM analog was added to the cells in the presence of 0.5 mM isobutylmethylxanthine (IBMX), and the cells were incubated at 37° C. for 15 minutes. The reaction was terminated by addition of cell lysis buffer. Then, the amount of intracellular cAMP produced in the HEK293 cells of each well was measured using an ELISA kit for cAMP measurement (GE Healthcare Japan Corp., #RPN2251). […] In the figure, the abscissa represents logarithms of concentration of AM or an AM analog added (M), and the ordinate represents amounts of intracellular cAMP produced in HEK293 cells stably expressing an AMI receptor (fmol/well).
In the figure, the abscissa represents logarithms of concentration of AM or an AM analog added (M), and the ordinate represents amounts of intracellular cAMP produced in HEK293 cells stably expressing an AMI receptor (fmol/ml).

in vivo [6] = assay: in vivo
Method: Seven-week-old male Wistar rats were prepared, and grown with normal feeds. To determine plasma AM concentrations, 50 nmol/kg of AM or an AM analog was subcutaneously administered. A peripheral blood sample was collected from the tail vein into a Kantan tube® (containing heparin Na, Eiken Chemical Co., Ltd., Tochigi, Japan) at predetermined times (0, 15, 30, 60, and 120 minutes after administration). The tube was centrifuged at 2,000×g. Plasma was collected from the tube, and transferred into a test tube (containing 21 μg of aprotinin and 0.3 mg of EDTA-2Na) and stored. […] In the figure, the abscissa represents elapsed time after subcutaneous administration (hr), and the ordinate represents concentration in plasma of AM or an AM analog (pM). In addition, maximum concentrations in blood (Cmax) of AM or the AM analogs in rat plasma after subcutaneous administration were calculated.

Row | SMILES | change in amount with the lapse of reaction time in reaction mixture with serum (in vitro [1]) | remaining at 4 h (in vitro [1]) [%] | detection in rat plasma after subcutaneous administration [2] | AUC (in vivo [3]) [nM·h] | Cmax (in vivo [3]) [nM] | half-life (in vivo [3]) [min] | stability in reaction mixture with human serum (in vitro [4]) | EC50 [5] [nM] | intracellular cAMP concentration-increasing activity ([5]; Experiment IX, addition at 10^−9 M or 10^−8 M, HEK293 cells) | detection in rat plasma after subcutaneous administration (in vivo [6]; 50 nmol/kg subcutaneous, Experiment X) | Cmax (in vivo [6]; male, Wistar, rat, in vivo, sc, 50 nmol/kg) [nM]
1 | CC[C@H](C)[C@H](NC(=O)[C@H](CCC(N)=O)NC(=O)[C@H](Cc1c[nH]cn1)NC(=O)[C@H](C)NC(=O)[C@H](CC(C)C)NC(=O)[C@H](CCCCN)NC(=O)[C@H](CCC(N)=O)NC(=O)[C@@H](NC(=O)[C@@H](NC(=O)[C@@H]1CSSC[C@H](NC(=O)CNC(=O)[C@H](Cc2ccccc2)NC(=O)[C@@H](N)CO)C(=O)N[C@@H](CCCNC(=N)N)C(=O)N[C@@H](Cc2ccccc2)C(=O)NCC(=O)N[C@@H]([C@@H](C)O)C(=O)N1)[C@@H](C)O)C(C)C)C(=O)N[C@@H](Cc1ccc(O)cc1)C(=O)N[C@@H](CCC(N)=O)C(=O)N[C@@H](Cc1ccccc1)C(=O)N[C@H](C(=O)N[C@@H](CC(=O)O)C(=O)N[C@@H](CCCCN)C(=O)N[C@@H](CC(=O)O)C(=O)N[C@@H](CCCCN)C(=O)N[C@@H](CC(=O)O)C(=O)N[C@@H](CC(N)=O)C(=O)N[C@H](C(=O)N[C@@H](C)C(=O)N1CCC[C@H]1C(=O)N[C@H](CCCNC(=N)N)C(=O)N[C@@H](CO)C(=O)N[C@@H](CCCCN)C(=O)N[C@H](C(=O)N[C@@H](CO)C(=O)N1CCC[C@H]1C(=O)N[C@@H](CCC(N)=O)C(=O)NCC(=O)N[C@@H](Cc1ccc(O)cc1)C(N)=O)[C@@H](C)CC)C(C)C)[C@@H](C)O (relative stereo) [[D-Arg-44]hAM(13-52), SFGCRFGTCTVQKLAHQIYQFTDKDKDNVAP-*R-S-K-I-S-P-Q-G-Y-CONH2] | almost no decrease or only slight decrease in amount | 81.9 | detected in rat plasma 15 minutes after administration | 0.0591 | 0.111 | 76.3 | – | – | – | – | –
2 | CC[C@H](C)[C@H](NC(=O)[C@H](CCC(N)=O)NC(=O)[C@H](Cc1c[nH]cn1)NC(=O)[C@H](C)NC(=O)[C@H](CC(C)C)NC(=O)[C@H](CCCCN)NC(=O)[C@H](CCC(N)=O)NC(=O)[C@@H](NC(=O)[C@@H](NC(=O)[C@@H]1CSSC[C@H](NC(=O)CNC(=O)[C@H](Cc2ccccc2)NC(=O)[C@@H](N)CO)C(=O)N[C@@H](CCCNC(=N)N)C(=O)N[C@@H](Cc2ccccc2)C(=O)NCC(=O)N[C@@H]([C@@H](C)O)C(=O)N1)[C@@H](C)O)C(C)C)C(=O)N[C@@H](Cc1ccc(O)cc1)C(=O)N[C@@H](CCC(N)=O)C(=O)N[C@@H](Cc1ccccc1)C(=O)N[C@H](C(=O)N[C@@H](CC(=O)O)C(=O)N[C@@H](CCCCN)C(=O)N[C@@H](CC(=O)O)C(=O)N[C@@H](CCCCN)C(=O)N[C@@H](CC(=O)O)C(=O)N[C@@H](CC(N)=O)C(=O)N[C@H](C(=O)N[C@@H](C)C(=O)N1CCC[C@H]1C(=O)N[C@@H](CCCCN)C(=O)N[C@@H](CO)C(=O)N[C@@H](CCCCN)C(=O)N[C@H](C(=O)N[C@@H](CO)C(=O)N1CCC[C@H]1C(=O)N[C@@H](CCC(N)=O)C(=O)NCC(=O)N[C@@H](Cc1ccc(O)cc1)C(N)=O)[C@@H](C)CC)C(C)C)[C@@H](C)O [[Lys-44]hAM(13-52), SFGCRFGTCTVQKLAHQIYQFTDKDKDNVAPKSKISPQGY-CONH2] (H-SFGCRFGTCTVQKLAHQIYQFTDKDKDNVAPKSKISPQGY-NH2; disulfide 4-9) | almost no decrease or only slight decrease in amount | 51.8 | detected in rat plasma 15 minutes after administration | 0.227 | 0.396 | 88.3 | – | – | – | – | –
3 | CC[C@H](C)[C@H](NC(=O)[C@H](CCC(N)=O)NC(=O)[C@H](Cc1c[nH]cn1)NC(=O)[C@H](C)NC(=O)[C@H](CC(C)C)NC(=O)[C@H](CCCCN)NC(=O)[C@H](CCC(N)=O)NC(=O)[C@@H](NC(=O)[C@@H](NC(=O)[C@@H]1CSSC[C@H](NC(=O)CNC(=O)[C@H](Cc2ccccc2)NC(=O)[C@@H](N)CO)C(=O)N[C@@H](CCCNC(=N)N)C(=O)N[C@@H](Cc2ccccc2)C(=O)NCC(=O)N[C@@H]([C@@H](C)O)C(=O)N1)[C@@H](C)O)C(C)C)C(=O)N[C@@H](Cc1ccc(O)cc1)C(=O)N[C@@H](CCC(N)=O)C(=O)N[C@@H](Cc1ccccc1)C(=O)N[C@H](C(=O)N[C@@H](CC(=O)O)C(=O)N[C@@H](CCCCN)C(=O)N[C@@H](CC(=O)O)C(=O)N[C@@H](CCCCN)C(=O)N[C@@H](CC(=O)O)C(=O)N[C@@H](CC(N)=O)C(=O)N[C@H](C(=O)N[C@@H](C)C(=O)N1CCC[C@H]1C(=O)N[C@@H](CO)C(=O)N[C@@H](CCCCN)C(=O)N[C@H](C(=O)N[C@@H](CO)C(=O)N1CCC[C@H]1C(=O)N[C@@H](CCC(N)=O)C(=O)NCC(=O)N[C@@H](Cc1ccc(O)cc1)C(N)=O)[C@@H](C)CC)C(C)C)[C@@H](C)O [[des-Arg-44]hAM(13-52), SFGCRFGTCTVQKLAHQIYQFTDKDKDNVAPSKISPQGY-CONH2] (H-SFGCRFGTCTVQKLAHQIYQFTDKDKDNVAPSKISPQGY-NH2; disulfide 4-9) | – | – | – | – | – | – | stable | 1.95 | approximately equivalent to that of hAM(1-52) or hAM(13-52) | detected in rat plasma 15 minutes after administration | 0.679
